Laboratory results taken from patent publication US4499187A, “Method for evaluating mutagenicity” (Mobil Oil Corporation, priority 1984, dated 1985).

Columns and labels:
[1] = system: Salmonella typhimurium tester strain TA98; assay: Modified Ames test with Aroclor 1254-induced rat liver S9 on DMSO extract (specific mutagenic activity, revertants); assay type: cell-based
Procedure: (§1) The hydrocarbon mixture to be assayed is extracted with an equal volume of DMSO five times, and the extracts are combined. The combined extract, which serves as surrogate for the hydrocarbon itself, is assayed using Salmonella typhimurium tester strain TA98 together with Aroclor 1254-induced rat liver S9. Prior to use, the rat liver S9 homogenate, obtained from Litton Bionetics, Kensington, Md., was stored at -80° C., and thawed on ice for 4 hours prior to use.
The assay is conducted by first introducing into a series of sterile capped culture tubes up to about eight different doses of the combined extract. The doses, usually in the range of 10 to 75 microliters, are selected to delimit the linear portion of the doseresponse curve. Duplicate or triplicate tubes are prepared for each dose level. […] Plates are incubated inverted at 37° C. in the dark and revertant colonies are counted 48 hours later.
Spontaneous reversion rates (47±8.5) and negative (solvent) control rates (47±8.5) were determined for all tests. […]
Specific mutagenic activity is assessed from the slope of the linear portion of the dose response curve that is obtained, and may be reported as revertants per μl of extract. […]

[2] = system: Salmonella typhimurium tester strain TA98; assay: Modified Ames test with induced hamster liver S9 (TA98 revertants/plate); assay type: cell-based; settings: 2 ug per plate
Procedure: as §1
The assay is conducted by first introducing into a series of sterile capped culture tubes up to about eight different doses of the combined extract. The doses, usually in the range of 10 to 75 microliters, are selected to delimit the linear portion of the doseresponse curve. Duplicate or triplicate tubes are prepared for each dose level. This is followed by 0.5 ml S9 mix containing 400 μl S9, 8 μM MgCl2, 33 μM KCl, 5 μM glucose-6-phosphate, 4 μM NADP and 100 μM sodium phosphate (pH 7.4), and 0.1 ml Salmonella typhimurium broth culture (1×10^9 cells/ml). The cultures are incubated at 37° C. with agitation for 20 minutes, following which top agar (0.6% agar, 0.5% NaCl, 0.5 mM histidine-biotin) is added. The tubes are vortexed to ensure adequate mixing and the contents overlaid on 30 ml Vogel-Bonner minimal media plates. Plates are incubated inverted at 37° C. in the dark and revertant colonies are counted 48 hours later. […]

## Nc1ccc2cc3ccccc3cc2c1 [2-aminoanthracene]
[1]; 2 ug per plate, 400 ul rat S9
  TA98 Revertants/Plate, 400 ul Rat S9: 313 Revertants/Plate
[1]; 2 μg/plate, TA98, rat liver S9
  revertants (positive control): 441±285 revertants
[2]; 400 ul hamster S9
  TA98 Revertants/Plate, 400 ul Hamster S9: 639 Revertants/Plate
[2]; 400 ul hamster S9 + 2xNADP (8 mM)
  TA98 Revertants/Plate, 400 ul Hamster S9 + 2xNADP: 977 Revertants/Plate
